{"source": "patent US20230278969A1", "about": "“CERTAIN (2S)-N-[(1S)-1-CYANO-2-PHENYLETHYL]-1,4-OXAZEPANE-2-CARBOXAMIDES AS DIPEPTIDYL PEPTIDASE 1 INHIBITORS” (AstraZeneca AB, priority 2014, published 2023)", "key": {"[1]": {"target": "recombinant human (RH) DPP1 (Homo sapiens (Human), UniProt P53634)", "sequence (P53634 231-394)": "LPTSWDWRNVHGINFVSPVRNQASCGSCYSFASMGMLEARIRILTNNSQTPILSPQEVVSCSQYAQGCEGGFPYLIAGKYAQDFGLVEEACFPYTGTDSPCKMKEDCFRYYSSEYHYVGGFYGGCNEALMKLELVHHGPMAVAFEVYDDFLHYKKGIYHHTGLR", "sequence (P53634 25-143)": "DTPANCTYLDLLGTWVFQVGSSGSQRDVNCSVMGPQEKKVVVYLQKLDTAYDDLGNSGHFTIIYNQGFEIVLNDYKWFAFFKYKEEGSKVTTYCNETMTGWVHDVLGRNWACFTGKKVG", "sequence (P53634 395-463)": "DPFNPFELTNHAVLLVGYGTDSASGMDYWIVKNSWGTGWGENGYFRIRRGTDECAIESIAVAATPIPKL", "assay": "Test A1: Fluorescence Assay for Recombinant Human (RH) DPP1", "assay_type": "biochemical", "details": "Test A1 (Examples 1-35); rhDPP1 ~50 pM, 100 µM H-Gly-Arg-AMC, 22° C.", "experimental": "Test A1: Fluorescence Assay for Recombinant Human (RH) DPP1\nThe activity of DPP1 was determined by measuring the enzymatic release of aminomethyl coumarin (AMC) from the peptide substrate (H-Gly-Arg-AMC), which leads to an increase in fluorescence intensity at λex =350 nm and λem =450 nm. The assay was carried out in black 384 well plates in a final volume of 50 µl at 22° C. The assay conditions contained the following: 25 mM piperazine buffer pH 5.0; 50 mM NaCl, 5 mM DTT; 0.01% (v/v) Triton X-100; 100 µMH-Gly-Arg-AMC and rhDPP1 (~50 pM). […] Routinely, inhibitors were pre-incubated with rhDPP1 for 30-60 min prior to the addition of the peptide substrate to start the reaction for a further 60 min at 22° C."}, "[2]": {"assay": "Test B: In-vitro Competitive Aortic Tissue Binding Assay", "design": "species or system Han Wistar rats", "details": "100 µM compound, competition with [14C]-labelled WO2010/128324 Ex. 3, categories strong binder, medium binder, no binder", "experimental": "To assist the design of DPP1 inhibitors with a decreased risk of binding to elastin rich tissues, such as the aorta, the in-vitro competitive aortic binding assay disclosed below (Test B) was developed to facilitate the selection process.\nTest B: In-vitro Competitive Aortic Tissue Binding Assay\nAortic homogenate was prepared from the thoracic aortae of Han Wistar rats. Freshly isolated thoracic aortae were frozen, and later thawed and stripped of non-elastic material. […] Homogenate concentration was adjusted to 30 mg/mL in Puck’s saline, and aliquots were stored at -80° C. until use. Positive and negative control compounds and test compounds were made up to 100 mM in DMSO, and added to 1 mL aliquots of aortic homogenate in Puck’s saline for a final concentration of 100 µM. Homogenate samples were pre-incubated with test compounds at 37° C., rotating, overnight. [^14C]4-Amino-N-[(1S)-1-cyano-2-(4′-cyanobiphenyl-4-yl)ethyl]tetrahydro-2H-pyran-4-carboxamide was then added to all samples to a final concentration of 100 µM, and samples were incubated at 37° C., rotating, for a further 2 h. Protein was precipitated from each sample by the addition of 10 mL acetone, prechilled to -20° C. Samples were left overnight at -20° C. to allow complete precipitation. […] Precipitate was washed by resuspension in 10 mL 80% methanol in distilled water, and re-pelleted by centrifugation at 4,500 × g at 4° C. for 20 min. […] After final wash, precipitate was air-dried, and dissolved overnight in 1 mL NCSII Tissue Solubiliser. 1 mL aliquots of supernatants were added to 5 mL Ultima Gold scintillation fluid (Perkin Elmer, MA, U.S.A.), and 1 mL solubilised pellets were added to 5 mL Hionic-Fluor scintillation fluid (Perkin Elmer, MA, U.S.A.). Radioactivity of samples was determined on a Beckman LS6500 multipurpose scintillation counter (Beckman Coulter, IN, U.S.A.). […] Duplicate samples were tested for each compound on each experimental occasion, and at least two experiments were run for each test compound. […] 1-way ANOVA and Bonferroni’s multiple comparison tests were performed to calculate significance of differences from vehicle control."}, "[3]": {"assay": "rat quantitative whole-body autoradiography (QWBA) studies", "assay_type": "in vivo"}, "[4]": {"details": "QWBA studies, literature (Schmidt et al. 1984); cited from earlier work"}}, "data": [{"smiles": "N#Cc1ccc(-c2ccc(C[C@@H](C#N)NC(=O)[C@@H]3CNCCCO3)cc2)cc1", "note": "[Example 1, (2S)-N-[(1S)-1-Cyano-2-(4′-cyanobiphenyl-4-yl)ethyl]-1,4-oxazepane-2-carboxamide]", "values": [{"measurement": "DPP1 activity, pIC50", "setting": "[1]", "result": 7.45}]}, {"smiles": "Cn1c(=O)oc2ccc(-c3ccc(C[C@@H](C#N)NC(=O)[C@@H]4CNCCCO4)cc3)cc21", "note": "[Example 2, (2S)-N-{(1S)-1-cyano-2-[4-(3-methyl-2-oxo-2,3-dihydro-1,3-benzoxazol-5-yl)phenyl]ethyl}-1,4-oxazepane-2-carboxamide]", "values": [{"measurement": "Aortic Tissue Binding", "setting": "[2]", "result": "No binder"}]}, {"smiles": "Cc1cc(-c2ccc(C[C@@H](C#N)NC(=O)[C@@H]3CNCCCO3)cc2)cc2c1oc(=O)n2C", "note": "[Example 3, (2S)-N-{(1S)-1-Cyano-2-[4-(3,7-dimethyl-2-oxo-2,3-dihydro-1,3-benzoxazol-5-yl)phenyl]ethyl}-1,4-oxazepane-2-carboxamide]", "values": [{"measurement": "DPP1 activity, pIC50", "setting": "[1]", "result": 7.99}]}, {"smiles": "CS(=O)(=O)Oc1cccc(-c2ccc(C[C@@H](C#N)NC(=O)[C@@H]3CNCCCO3)cc2)c1", "note": "[Example 4, 4′-[(2S)-2-Cyano-2-{[(2S)-1,4-oxazepan-2-ylcarbonyl] Amino}ethyl] Biphenyl-3-yl methanesulfonate]", "values": [{"measurement": "DPP1 activity, pIC50", "setting": "[1]", "result": 7.1}]}, {"smiles": "N#Cc1ccc(-c2ccc(C[C@@H](C#N)NC(=O)[C@@H]3CCCCN3)cc2)cc1", "note": "[WO2009/074829 (Example 24)]", "values": [{"measurement": "Aortic Tissue Binding", "setting": "[2]", "result": "Binder"}]}, {"smiles": "Cn1c(=O)oc2ccc(-c3ccc(C[C@@H](C#N)NC(=O)[C@@H]4CCCCN4)cc3)cc21", "note": "[WO2009/074829 (Example 96)]", "values": [{"measurement": "Aortic Tissue Binding", "setting": "[2]", "result": "Medium binder"}]}, {"smiles": "N#Cc1ccc(-c2ccc(C[C@@H](C#N)NC(=O)C3(N)CCOCC3)cc2)cc1", "note": "[WO2010/128324 (Ex. 3), 4-amino-N-[(1S)-1-cyano-2-(4′-cyanobiphenyl-4-yl)ethyl]tetrahydro-2H-pyran-4-carboxamide]", "values": [{"measurement": "Aortic Tissue Binding", "setting": "[2]", "result": "Strong binder (reference)"}, {"measurement": "aortic retention", "setting": "[3]", "result": "high level of aortic retention"}]}, {"smiles": "Cn1c(=O)oc2ccc(-c3ccc(C[C@@H](C#N)NC(=O)C4(N)CCOCC4)cc3)cc21", "note": "[WO2010/128324 (Example 17)]", "values": [{"measurement": "Aortic Tissue Binding", "setting": "[2]", "result": "Strong binder"}]}, {"smiles": "CC(c1ccc(Cl)c(Cl)c1)N1N=C(N)CC1=O", "note": "(stereo not shown) [muzolimine]", "values": [{"measurement": "retention in the aorta", "setting": "[4]", "result": "retained selectively in the aorta"}]}]}
